Assay results: PubChem BioAssay AID248 (DTP/NCI, 2004)
Where “and” joins values, the source holds several entries; their conditions need not be identical. Equal entries are not always repeated. Inconclusive results and toxic doses are left out. Cut-off read from the data, not from the text of the source: active = T/C of 150% or more; inactive = T/C below 125%.

System: L1210 leukemia ip in BDF1 mice, survival T/C
Assay: NCI In Vivo Anticancer Drug Screen. Data for tumor model L1210 Leukemia (intraperitoneal) in B6D2F1 (BDF1) mice
Conditions: endpoint: mean survival time, higher = longer survival
Procedure, shortened: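 In this screen, tumor-bearing mice given compound are compared to those given vehicle, and their survival values are reported as a treated-to-control quotient.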

[1] = dose: 100.0 mg/kg/injection, schedule: Q01DX009 (ip), vehicle: saline
[2] = dose: 100.0 mg/kg/injection, schedule: Q01DX001 (ip), vehicle: saline
[3] = dose: 200.0 mg/kg/injection, schedule: Q01DX001 (ip), vehicle: saline
[4] = dose: 400.0 mg/kg/injection, schedule: Q01DX001 (ip), vehicle: saline
[5] = dose: 100.0 mg/kg/injection, schedule: Q04DX003 (ip), vehicle: Klucel (hydroxypropylcellulose) (HPC)
[6] = dose: 200.0 mg/kg/injection, schedule: Q04DX003 (ip), vehicle: Klucel (hydroxypropylcellulose) (HPC)
[7] = dose: 50.0 mg/kg/injection, schedule: Q04DX002 (ip), vehicle: Klucel (hydroxypropylcellulose) (HPC)
[8] = dose: 100.0 mg/kg/injection, schedule: Q04DX002 (ip), vehicle: Klucel (hydroxypropylcellulose) (HPC)
[9] = dose: 200.0 mg/kg/injection, schedule: Q04DX002 (ip), vehicle: Klucel (hydroxypropylcellulose) (HPC)

Measured: T/C

CN(C)NCCC#N
inactive: dose: 66.0 mg/kg/injection, schedule: Q01DX009 (ip), vehicle: saline 118 % of control | dose: 75.0 mg/kg/injection, schedule: Q01DX009 (ip), vehicle: saline 116 % of control | dose: 100.0 mg/kg/injection, schedule: Q01DX009 (ip), vehicle: saline sonified 98 % of control | [1] 116 % of control | dose: 200.0 mg/kg/injection, schedule: Q01DX009 (ip), vehicle: saline sonified 111 % of control

CCOC(=O)CCC(C)(c1ccc(O)cc1)c1ccc(O)cc1
inactive: dose: 50.0 mg/kg/injection, schedule: Q01DX009 (ip), vehicle: saline with Tween-80 98 % of control | dose: 50.0 mg/kg/injection, schedule: Q04DX003 (ip), vehicle: saline with Tween-80 93 % of control | dose: 100.0 mg/kg/injection, schedule: Q01DX009 (ip), vehicle: saline with Tween-80 96 % of control | dose: 100.0 mg/kg/injection, schedule: Q04DX003 (ip), vehicle: saline with Tween-80 93 % of control | dose: 200.0 mg/kg/injection, schedule: Q01DX009 (ip), vehicle: saline with Tween-80 96 % of control | dose: 200.0 mg/kg/injection, schedule: Q04DX003 (ip), vehicle: saline with Tween-80 102 % of control

CCOCCOCCOC(C)Oc1cccc(OC)c1 (centres undefined)
inactive: dose: 100.0 mg/kg/injection, schedule: Q04DX002 (ip), vehicle: saline 107 % of control | dose: 200.0 mg/kg/injection, schedule: Q04DX002 (ip), vehicle: saline 101 % of control | dose: 400.0 mg/kg/injection, schedule: Q04DX002 (ip), vehicle: saline 96 % of control

O=c1cc(CN2CCN(CCO)CC2)[nH]c(=O)[nH]1
inactive: dose: 100.0 mg/kg/injection, schedule: Q04DX003 (ip), vehicle: saline 101 % of control | dose: 200.0 mg/kg/injection, schedule: Q04DX003 (ip), vehicle: saline 95 % of control | dose: 400.0 mg/kg/injection, schedule: Q04DX003 (ip), vehicle: saline 95 % of control

COc1cc(N)ccn1
inactive: dose: 100.0 mg/kg/injection, schedule: Q04DX003 (ip), vehicle: acetone 95 % of control | dose: 200.0 mg/kg/injection, schedule: Q04DX003 (ip), vehicle: acetone 94 % of control | dose: 400.0 mg/kg/injection, schedule: Q04DX003 (ip), vehicle: acetone 94 % of control

COc1ccc(CN2CCCN(Cc3ccc(OC)cc3OC)C2c2cccnc2)c(OC)c1
inactive: dose: 50.0 mg/kg/injection, schedule: Q01DX001 (ip), vehicle: saline 94 % of control | [2] 100 % of control | [3] 103 % of control | [4] 100 % of control

O=[N+]([O-])c1ccc(-c2cnc(Nc3ccc(Cc4ccc(Nc5ncc(-c6ccc([N+](=O)[O-])cc6)s5)c(Cl)c4)cc3Cl)s2)cc1
inactive: [5] 98 % of control | [6] 106 % of control | dose: 400.0 mg/kg/injection, schedule: Q04DX003 (ip), vehicle: Klucel (hydroxypropylcellulose) (HPC) 98 % of control

CC1(c2ccc3ccccc3c2)OCC2(CCCCC2)CO1
inactive: [7] 93 % of control | [8] 100 % of control | [9] 100 % of control | dose: 400.0 mg/kg/injection, schedule: Q04DX002 (ip), vehicle: Klucel (hydroxypropylcellulose) (HPC) 96 % of control and 97 % of control

C=CCOCCN1CCN(CCCN2c3ccccc3Sc3ccc(C(F)(F)F)cc32)CC1
inactive: dose: 0.23 mg/kg/injection, schedule: Q01DX009 (ip), vehicle: saline 93 % of control | dose: 0.35 mg/kg/injection, schedule: Q01DX009 (ip), vehicle: saline 86 % of control | dose: 0.54 mg/kg/injection, schedule: Q01DX009 (ip), vehicle: saline 98 % of control | dose: 1.09 mg/kg/injection, schedule: Q01DX009 (ip), vehicle: saline 111 % of control | dose: 2.18 mg/kg/injection, schedule: Q01DX009 (ip), vehicle: saline 86 % of control | dose: 6.25 mg/kg/injection, schedule: Q04DX003 (ip), vehicle: saline 101 % of control | dose: 12.5 mg/kg/injection, schedule: Q04DX003 (ip), vehicle: saline 110 % of control | dose: 16.0 mg/kg/injection, schedule: Q01DX003 (ip), vehicle: saline 117 % of control | dose: 17.0 mg/kg/injection, schedule: Q04DX003 (ip), vehicle: saline 101 % of control | dose: 25.0 mg/kg/injection, schedule: Q01DX003 (ip), vehicle: saline 108 % of control | dose: 25.0 mg/kg/injection, schedule: Q04DX003 (ip), vehicle: saline 106 % of control

CC12CCC3C(CCC4CCCCC43C)C1CCC2CO (centres undefined)
inactive: dose: 100.0 mg/kg/injection, schedule: Q04DX002 (ip), vehicle: DMSO 101 % of control | dose: 200.0 mg/kg/injection, schedule: Q04DX002 (ip), vehicle: DMSO 99 % of control | dose: 400.0 mg/kg/injection, schedule: Q04DX002 (ip), vehicle: DMSO 89 % of control

CCCCCCCC[N+](C)(CCCCCCCC)CCCCCCCC
inactive: dose: 0.04 mg/kg/injection, schedule: Q01DX009 (ip), vehicle: saline 86 % of control | dose: 0.09 mg/kg/injection, schedule: Q01DX009 (ip), vehicle: saline 100 % of control | dose: 0.19 mg/kg/injection, schedule: Q01DX009 (ip), vehicle: saline 101 % of control | dose: 0.19 mg/kg/injection, schedule: Q04DX003 (ip), vehicle: acetone 112 % of control | dose: 0.28 mg/kg/injection, schedule: Q01DX009 (ip), vehicle: saline with Tween-80 114 % of control | dose: 0.39 mg/kg/injection, schedule: Q01DX001 (ip), vehicle: saline with Tween-80 105 % of control | dose: 0.43 mg/kg/injection, schedule: Q01DX009 (ip), vehicle: saline with Tween-80 116 % of control | dose: 0.5 mg/kg/injection, schedule: Q01DX015 (ip), vehicle: saline 97 % of control | dose: 0.64 mg/kg/injection, schedule: Q01DX009 (ip), vehicle: saline with Tween-80 118 % of control | dose: 0.78 mg/kg/injection, schedule: Q01DX001 (ip), vehicle: saline with Tween-80 90 % of control | dose: 1.0 mg/kg/injection, schedule: Q01DX015 (ip), vehicle: saline 95 % of control | dose: 1.56 mg/kg/injection, schedule: Q01DX001 (ip), vehicle: saline with Tween-80 114 % of control

CN(C)CCCNc1n[nH]c2cccc(Cl)c12
inactive: dose: 50.0 mg/kg/injection, schedule: Q01DX009 (ip), vehicle: saline 104 % of control | [1] 96 % of control | dose: 200.0 mg/kg/injection, schedule: Q01DX009 (ip), vehicle: saline 104 % of control

CN(C)c1ccc(/C=N/NC(=O)c2ccncc2)c(Cl)c1
inactive: dose: 100.0 mg/kg/injection, schedule: Q01DX009 (ip), vehicle: Klucel (hydroxypropylcellulose) (HPC) 96 % of control | dose: 200.0 mg/kg/injection, schedule: Q01DX009 (ip), vehicle: Klucel (hydroxypropylcellulose) (HPC) 89 % of control | dose: 400.0 mg/kg/injection, schedule: Q01DX009 (ip), vehicle: Klucel (hydroxypropylcellulose) (HPC) 91 % of control

O=C(Nc1ccccc1)Nc1nccs1
inactive: [2] 102 % of control | [5] 105 % of control | [3] 106 % of control | [6] 100 % of control | [4] 101 % of control

O=c1c(N=Nc2ccc(Cl)cc2)c(O)n(-c2ccc(Br)cc2)c(=S)n1-c1ccccc1
inactive: dose: 50.0 mg/kg/injection, schedule: Q01DX001 (ip), vehicle: Klucel (hydroxypropylcellulose) (HPC) 97 % of control | dose: 100.0 mg/kg/injection, schedule: Q01DX001 (ip), vehicle: Klucel (hydroxypropylcellulose) (HPC) 101 % of control | dose: 200.0 mg/kg/injection, schedule: Q01DX001 (ip), vehicle: Klucel (hydroxypropylcellulose) (HPC) 97 % of control

O=S(=O)(CBr)/C(Br)=C/c1ccccc1
inactive: [7] 97 % of control | [8] 94 % of control | [9] 103 % of control
